# Laboratory results taken from patent US20100015050A1, “PEG AND TARGETING LIGANDS ON NANOPARTICLE SURFACE” (WAYNE STATE UNIVERSITY, priority 2006, published 2010).
# Tests used:
# NCl/ADR-RES cells [1] = assay: nanoparticle uptake/retention and paclitaxel accumulation in cells (HPLC); assay type: cell-based; conditions: inhibition of P-gp by verapamil
# Protocol: NCl/ADR-RES cells were plated in 24-well plates at a density of 50,000 cells/well/1 mL. […] The medium was changed on day 2 and every other day thereafter, and no further dose of drug was added. Cells were harvested at different time intervals, and lysed using cell culture lysis reagent (Promega).
# In order to verify that differences in drug accumulation are not due to differences in nanoparticle uptake/retention in cells, the inventors labeled nanoparticles with 6-coumarin, and followed the cell uptake and retention of nanoparticles and paclitaxel in NCl/ADR-RES cells.
# [2] = system: vascular smooth muscle cells; assay: MTS cytotoxicity of dexamethasone formulations; assay type: cell-based; conditions: nanoparticles 600 μg/mL or drug solution 25 μg/mL, single dose
# Protocol: Nanoparticle formulations with different drug release rates were formulated by emulsion solvent evaporation technique. […] Data represented as mean±SD, n=3. The two formulations were investigated for cytotoxicity in vascular smooth muscle cells. Cells were plated in 96-well plates at a density of 5000 cells/well/0.1 mL. A nanoparticle suspension prepared in regular serum-containing growth medium (600 μg/mL, 0.1 mL) was added to each well. Drug solution in growth medium (25 μg/mL) was also added to some of the wells. Untreated cells were used as controls. Cytotoxicity was determined using a standard MTS assay. The medium was changed on day 2 and every other day thereafter, and no further dose of drug was added. Data as mean±SD, n=6. […] Data represented as mean±SEM, n=3. Cells were plated at 100,000 cells/well/2 ml in 6-well plates. Drug encapsulated in nanoparticles (600 μg of nanoparticles/ml, 2 ml) or in solution (25 μg/ml, 2 ml) was added to each well. Medium was changed on day 2 and every other day thereafter, and no further dose of the drug was added.
# MCF-7 cells = assay: MTS cytotoxicity of paclitaxel treatments in drug-sensitive cells; assay type: cell-based; conditions: paclitaxel 100 nM in solution or equivalent in nanoparticles; compared to untreated cells
# Protocol: (§1) Drug sensitive (MCF-7) and drug-resistant (NCl/ADR-RES) cells were plated in 96-well plates at a density of 5000 cells/well/0.1 mL. Cells were then treated with paclitaxel (Pac) in solution (100 nM) or equivalent in nanoparticles (NP). […] Untreated cells and cells treated with empty nanoparticles were used as controls. Cytotoxicity was followed using a standard MTS assay (see Methods). […] Data as mean±SD, n=6 wells. * P<0.05.
# The inventors initially investigated the efficacy of paclitaxel encapsulated in nanoparticles in drug-sensitive MCF-7 cells.
# NCl/ADR-RES cells [3] = assay: MTS cytotoxicity in drug-resistant, P-gp overexpressing cells; assay type: cell-based; conditions: paclitaxel 100 nM in solution or in nanoparticles, no verapamil
# Protocol: as §1
# NCl/ADR-RES cells were plated in 96-well plates at a density of 5000 cells/well/0.1 mL. Cells were then treated with paclitaxel (Pac, 100 nM) in nanoparticles (NP). […] Untreated cells were used as controls. Cytotoxicity was followed as a function of time using a standard MTS assay. The medium was changed on day 2 and every other day thereafter, and no further dose of drug was added.
# Drug-resistant (NCl/ADR-RES) cells were plated in 96-well plates at a density of 5000 cells/well/0.1 mL. Cells were then treated with dual-agent nanoparticles releasing 0.3 ng/day/8 μg siRNA and 7 ng/day/8 μg paclitaxel. Cells treated with non-targeted (scrambled) siRNA and untreated cells were used as controls. Cytotoxicity was followed using a standard MTS assay. The medium was changed on day 2 and every other day thereafter, and no further dose of drug was added. Data as mean±SD, n=6 wells. * P<0.05 compared to controls. […]
# MCF-7 xenografts = assay: tumor growth and survival after single-dose paclitaxel treatment; assay type: in vivo; conditions: 400 μg paclitaxel/animal, nude mice
# Description: Effect of a single-dose paclitaxel treatment on tumor growth was investigated in nude mice bearing MCF-7 xenografts.
smiles,measurement,setting,value
COc1ccc(CCN(C)CCCC(C#N)(c2ccc(OC)c(OC)c2)C(C)C)cc1OC (stereo not drawn) [verapamil],effect on uptake or retention of nanoparticles,NCl/ADR-RES cells [1],did not significantly increase the uptake or retention of nanoparticles
C[C@@H]1C[C@H]2[C@@H]3CCC4=CC(=O)C=C[C@]4(C)[C@@]3(F)[C@@H](O)C[C@]2(C)[C@@]1(O)C(=O)CO [dexamethasone],cytotoxicity / inhibition of cell proliferation,[2],transient cytotoxicity
same,duration of cytotoxicity,[2],up to 5 days
CC(=O)O[C@H]1C(=O)[C@@]2(C)[C@H]([C@H](OC(=O)c3ccccc3)[C@]3(O)C[C@H](OC(=O)[C@H](O)[C@@H](NC(=O)c4ccccc4)c4ccccc4)C(C)=C1C3(C)C)[C@]1(OC(C)=O)CO[C@@H]1C[C@@H]2O [paclitaxel],inhibition of cell proliferation,MCF-7 cells,marginal but significant (P<0.05) inhibition of cell proliferation
same,effect on the viability of cells,NCl/ADR-RES cells [3],no significant effect on the viability of cells
same,effect on tumor growth,MCF-7 xenografts,only marginally effective
